# Read-outs that look alike come from different tables or passages of the source.
# How the values were obtained:
# [1] = tested on: Escherichia coli EC-1: VOGEL, mouse virulent; test: MIC determination (CLSI), EC-1; type: cell-based; settings: Escherichia coli, read-out: EC-1 (MIC)
# Method: (§1) The in vitro antibacterial activity of compounds described in the Examples was evaluated by minimum inhibitory concentration (MIC) testing according to Clinical and Laboratory Standards Institute (CLSI) Guidelines. See: Clinical and Laboratory Standards Institute. Methods for Dilution Antimicrobial Susceptibility Tests for Bacteria that Grow Aerobically; Approved Standard-Eighth Edition. CLSI document M7-A8 [ISBN 1-56238-689-1]. Clinical and Laboratory Standards Institute, 940 West Valley Road, Suite 1400, Wayne, Pa. 19087-1898 USA, 2006; also Clinical and Laboratory Standards Institute. Performance Standards for Antimicrobial Susceptibility Testing; Twentieth Informational Supplement. CLSI document M100-S20 [ISBN1-56238-716-2]. Clinical and Laboratory Standards Institute.
# (§2) The MIC determination is a standard laboratory method for evaluating the antibacterial activity of a compound. The MIC represents the lowest drug concentration that inhibits visible growth of bacteria following overnight incubation. […] Typically, the drug concentration range is broken down into 2-fold increments (e.g. 0.06 μg/mL, 0.12 μg/mL. 0.25 μg/mL, 0.50 μg/mL, 1.0 μg/mL, etc.) and the various drug concentrations are all individually incubated overnight with approximately the same number of bacteria. The MIC is then determined by visually inspecting the drug effect at each concentration, and identifying the lowest drug concentration that has inhibited bacterial growth as compared to the drug free control. Typically, bacteria continue to grow at drug concentrations lower than the MIC and don't grow at concentrations at and above the MIC.
# (§3) The MIC values described in Tables 2 and 3 below were derived from assays wherein each test compound was evaluated in duplicate. In cases where the duplicate values varied by 0-2-fold, the lower of the two values was reported below. Generally speaking, if the duplicate values varied by more than 2-fold, the assay was considered non-valid and was repeated until the variation between duplicate runs was ≦2-fold. In line with the CLSI guidelines referred to above, both control organisms and reference compounds were utilized in each MIC assay to provide proper quality control. MIC values generated with these control organisms and reference compounds were required to fall within a defined range for the assay to be considered valid and be included herein. Those skilled in the art will recognize that MIC values can and do vary from experiment to experiment. Generally speaking, it should be recognized that MIC values often vary +/−2-fold from experiment to experiment. While a single MIC is reported for each compound and each microorganism, the reader should not conclude that each compound was only tested once. Several of the compounds were subjected to multiple tests. The data reported in Tables 2 and 3 is reflective of the compounds relative activity and different MICs may have been generated on these occasions in line with the guidelines described above.
# (§4) The following bacterial strains were used in these MIC determinations:
# (2) Escherichia coli EC-1: VOGEL, mouse virulent labeled as EC-1 in Table 5;
# [2] = tested on: Pseudomonas aeruginosa UI-18: Wild-type (PA-7); test: MIC determination (CLSI), PA-7; type: cell-based; settings: Pseudomonas aeruginosa UI-18 wild-type; overnight incubation; lower of duplicate values; read-out: PA-7 (MIC)
# Method: as §1, §2, §3, §4
# (4) Pseudomonas aeruginosa UI-18: Wild-type, labeled as PA-7 in Table 5;
# [3] = tested on: Acinetobacter baumannii/haemolyticus: Multidrug-resistant clinical isolate (AB-3167); test: MIC determination (CLSI), AB-3167; type: cell-based; settings: Acinetobacter baumannii/haemolyticus multidrug-resistant clinical isolate; overnight incubation; lower of duplicate values; read-out: AB-3167 (MIC)
# Method: as §1, §2, §3, §4
# (1) Acinetobacter baumannii/haemolyticus: Multidrug-resistant clinical isolate labeled as AB-3167 in Table 5;
# [4] = tested on: Klebsiella pneumoniae: Ciprofloxacin-resistant isolate, expresses ESBL, clinical isolate (KP-3700); test: MIC determination (CLSI), KP-3700; type: cell-based; settings: overnight incubation, lower of duplicate values
# Method: as §1, §2, §3, §4
# (3) Klebsiella pneumoniae: Ciprofloxacin-resistant isolate, expresses extended-spectrum beta-lactamases (ESBL), clinical isolate, labeled as KP-3700 in Table 5.
# [5] = molecular target: T1, Pseudomonas aeruginosa LpxC enzyme (Pseudomonas aeruginosa, UniProt P47205); test: IC50 assay, LpxC enzyme from P. aeruginosa (BioTrove RapidFire mass spectrometry); type: biochemical
# T1 construct: made in house; host or cells: E. coli
# T1 sequence (P47205 1-303): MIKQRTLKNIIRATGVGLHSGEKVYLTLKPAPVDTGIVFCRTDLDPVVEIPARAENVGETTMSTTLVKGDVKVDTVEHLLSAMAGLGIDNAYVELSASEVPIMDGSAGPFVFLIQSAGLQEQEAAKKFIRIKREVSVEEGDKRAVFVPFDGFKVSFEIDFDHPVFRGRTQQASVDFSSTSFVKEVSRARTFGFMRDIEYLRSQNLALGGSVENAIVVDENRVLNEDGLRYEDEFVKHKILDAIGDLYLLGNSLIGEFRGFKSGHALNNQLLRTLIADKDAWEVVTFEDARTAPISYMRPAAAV
# Method: In order to assess the compounds biological activity, selected in-vitro assays were conducted on selected compounds of Formula I. One of the assays measured the compounds ability to disrupt the synthesis of lipopolysaccharide, LPS, which is a component of the outer membrane of Gram-negative bacteria. Disruption of this synthesis is lethal to the bacteria. The assay determined the compound's ability to inhibit LpxC, which is the first enzyme in the biosynthetic pathway for LPS (measured as IC50). Additionally, MICs (minimal inhibitory concentrations) were determined for several bacteria. The specific protocols are described below:
# A) IC50 Assay, LpxC Enzyme from P. Aeruginosa Labeled as PA LpxC Enzyme IC50):
# At the end of 1 hour, 5 ul of 1 N HCl was added to stop the enzyme reaction, the plates were centrifuged, and then processed with the BioTrove Rapidfire HTMS Mass Spectrometry System. A no-enzyme control was used in calculating the IC50 values from the percent conversion values.
# [6] = P. aeruginosa LpxC enzyme 0.1 nM, 25° C., 1 hour, pH 8.0, read-out: PA: IC50
Structure (SMILES),MIC [1] [µg/mL],MIC [2] [µg/mL],MIC [3] [µg/mL],KP-3700 (MIC) [4] [µg/mL],"IC50 [5, 6] [nM]",IC50 [5] [nM]
"C[C@@](CCn1cnc(-c2ccccc2)c1)(C(=O)NO)S(C)(=O)=O (stereo in doubt) [Example 13, N-hydroxy-2-methyl-2-(methylsulfonyl)-4-(4-phenyl-1H-imidazol-1-yl)butanamide]",> 64,> 64,> 64,>64.0,–,–
"C[C@@](CCn1cc(C2=CCCCC2)cn1)(C(=O)NO)S(C)(=O)=O [Example 1, (2R)-4-[4-(cyclohex-1-en-1-yl)-1H-pyrazol-1-yl]-N-hydroxy-2-methyl-2-(methylsulfonyl)butanamide]",8,1,> 64,16,–,–
"C[C@@](CCn1cc(C2CCCCC2)cn1)(C(=O)NO)S(C)(=O)=O [Example 2, (2R)-4-(4-cyclohexyl-1H-pyrazol-1-yl)-N-hydroxy-2-methyl-2-(methylsulfonyl)butanamide]",32,1,> 64,64,0.752,–
"C[C@@](CCn1cc(C2CCCC2)cn1)(C(=O)NO)S(C)(=O)=O [Example 3, (2R)-4-(4-cyclopentyl-1H-pyrazol-1-yl)-N-hydroxy-2-methyl-2-(methylsulfonyl)butanamide]",64,8,64,64,14.3,–
"Cc1nn(CC[C@](C)(C(=O)NO)S(C)(=O)=O)cc1-c1ccccc1 [Example 4, (2R)—N-hydroxy-2-methyl-4-(3-methyl-4-phenyl-1H-pyrazol-1-yl)-2-(methylsulfonyl)butanamide]",8,8,> 64,32,14.6,–
"Cc1cnn(CC[C@](C)(C(=O)NO)S(C)(=O)=O)c1 [Example 5, (2R)—N-hydroxy-2-methyl-4-(4-methyl-1H-pyrazol-1-yl)-2-(methylsulfonyl)butanamide]",> 64,32,> 64,>64.0,> 100,–
"C[C@@](CCn1cc(-c2ccccc2)cn1)(C(=O)NO)S(C)(=O)=O [Example 6, (2R)—N-hydroxy-2-methyl-2-(methylsulfonyl)-4-(4-phenyl-1H-pyrazol-1-yl)butanamide]",16,1,> 64,64,–,1.61
"C[C@@](CCn1cc(C#N)cn1)(C(=O)NO)S(C)(=O)=O [Example 7, (2R)-4-(4-cyano-1H-pyrazol-1-yl)-N-hydroxy-2-methyl-2-(methylsulfonyl)butanamide]",> 64,> 64,> 64,>64.0,620,–
"C[C@@](CCn1cc(-c2cnccn2)cn1)(C(=O)NO)S(C)(=O)=O [Example 8, (2R)—N-hydroxy-2-methyl-2-(methylsulfonyl)-4-[4-(pyrazin-2-yl)-1H-pyrazol-1-yl]butanamide]",> 64,> 64,> 64,>64.0,> 100,–
"C[C@@](CCn1cc(-c2cnc3ccccc3n2)cn1)(C(=O)NO)S(C)(=O)=O [Example 9, (2R)—N-hydroxy-2-methyl-2-(methylsulfonyl)-4-[4-(quinoxalin-2-yl)-1H-pyrazol-1-yl]butanamide]",> 64,> 64,> 64,>64.0,19,–
"C[C@@](CCn1cc(-c2nc3ccccc3o2)cn1)(C(=O)NO)S(C)(=O)=O [Example 10, (2R)-4-[4-(1,3-benzoxazol-2-yl)-1H-pyrazol-1-yl]-N-hydroxy-2-methyl-2-(methylsulfonyl)butanamide]",32,32,32,>64.0,13.8,–
"C[C@@](CCn1cc(C#Cc2cccc(C#N)c2)cn1)(C(=O)NO)S(C)(=O)=O [Example 11, (2R)-4-{4-[(3-cyanophenyl)ethynyl]-1H-pyrazol-1-yl}-N-hydroxy-2-methyl-2-(methylsulfonyl)butanamide]",32,16,> 64,64,12.1,–
"C[C@@](CCn1cc(-c2ccc(-c3ncco3)cc2)cn1)(C(=O)NO)S(C)(=O)=O [Example 12, (2R)—N-hydroxy-2-methyl-2-(methylsulfonyl)-4-{4-[4-(1,3-oxazol-2-yl)phenyl]-1H-pyrazol-1-yl}butanamide]",–,–,–,–,0.963,–
"C[C@@](CCn1cc(-c2ccccc2)nn1)(C(=O)NO)S(C)(=O)=O [Example 14, (2R)—N-hydroxy-2-methyl-2-(methylsulfonyl)-4-(4-phenyl-1H-1,2,3-triazol-1-yl)butanamide]",32,2,> 64,32,–,0.85
"Cc1c(-c2ccccc2)nnn1CC[C@](C)(C(=O)NO)S(C)(=O)=O [Example 15, (2R)—N-hydroxy-2-methyl-4-(5-methyl-4-phenyl-1H-1,2,3-triazol-1-yl)-2-(methylsulfonyl)butanamide]",> 64,32,> 64,>64.0,21.3,–
"C[C@@](CCn1cc(-c2ccc(F)c(F)c2F)nn1)(C(=O)NO)S(C)(=O)=O [Example 18, (2R)-N-hydroxy-2-methyl-2-(methylsulfonyl)-4-[4-(2,3,4-trifluorophenyl)-1H-1,2,3-triazol-1-yl]butanamide]",–,–,–,–,3.29,–
"CC(CCn1cc(CSc2ccc(Br)cc2)nn1)(C(=O)NO)S(C)(=O)=O (stereo not shown) [Example 25, 4-(4-{[(4-bromophenyl)sulfanyl]methyl}-1H-1,2,3-triazol-1-yl)-N-hydroxy-2-methyl-2-(methylsulfonyl)butanamide]",–,–,–,–,10.1,–
"CC(CCn1cc(-c2cn(Cc3ccccc3)cn2)cn1)(C(=O)NO)S(C)(=O)=O (stereo not shown) [Example 83, 4-[4-(1-benzyl-1H-imidazol-4-yl)-1H-pyrazol-1-yl]-N-hydroxy-2-methyl-2-(methylsulfonyl)butanamide]",–,–,–,–,> 100,–
"CC(CCn1cc(-c2cn(-c3ccc(F)cc3)cn2)cn1)(C(=O)NO)S(C)(=O)=O (stereo not shown) [Example 89, 4-{4-[1-(4-fluorophenyl)-1H-imidazol-4-yl]-1H-pyrazol-1-yl}-N-hydroxy-2-methyl-2-(methylsulfonyl)butanamide]",–,–,–,–,> 100,–

# — patent publication US8809333B2, “Imidazole, pyrazole, and triazole derivatives useful as antibacterial agents” (Pfizer Inc., priority 2011, dated 2014)
